Test results published in ChEMBL document CHEMBL1126436, “Taxol Photoaffinity Label: 7-(p-Azidobenzoyl)taxol Synthesis and Biological Evaluation” (1992).

Key:
[1] = test system: B16; assay: Compound was evaluated for the concentration which inhibits B16 melanoma cell proliferation by 50%; type: functional; details: Mus musculus, read-out: ED50 (the source's name)
[2] = test system: Tubulin; assay: Compound was evaluated for the in vitro concentration required to produce 50% stimulation of the microtubule assembly; details: read-out: ED50 (the source's name)

EC50 [1] [nM] | EC50 [2] [nM] | SMILES
957 | 15000 | CC(=O)O[C@H]1C(=O)[C@]2(C)[C@@H](OC(=O)c3ccc(N=[N+]=[N-])cc3)C[C@H]3OC[C@@]3(OC(C)=O)[C@H]2[C@H](OC(=O)c2ccccc2)[C@]2(O)C[C@H](OC(=O)[C@H](O)C(NC(=O)c3ccccc3)c3ccccc3)C(C)=C1C2(C)C (some centres undefined)
31.5 | 700 | CC(=O)O[C@H]1C(=O)[C@@]2(C)[C@H]([C@H](OC(=O)c3ccccc3)[C@]3(O)C[C@H](OC(=O)[C@H](O)[C@@H](NC(=O)c4ccccc4)c4ccccc4)C(C)=C1C3(C)C)[C@]1(OC(C)=O)CO[C@@H]1C[C@@H]2O [PACLITAXEL]
